Data on 23 compounds can be found in patent US8912216B2, “Hetaryl-[1,8]naphthyridine derivatives” (Merck Patent GmbH, priority 2010, dated 2014).

Assay [1] deals with TGF-beta-induced phosphorylation of Smad2 and Smad3 in Mv1-Lu cells. Briefly: Inhibition of Smad2/3 phosphorylation in Mv1Lu cells (Example 35A). The class given is cell-based, mink Mustela vison. To be noted: Neogale vison, Mv1-Lu cells, TGF-beta 1 5 ng/ml, phospho-Smad2/3 ELISA, read-out: TβR activity (Example 35A). As for the experimental part:
Inhibition of Smad2/3 Phosphorylation in Mv1Lu Cells by TGF-bta Receptor I Kinase Inhibitors
This assay was used to determine the inhibitory potency of compounds on TGF-beta-induced phosphorylation of Smad2 (Ser465/467) and Smad3 (Ser423/425). Mv1-Lu cells (lung epithelial cell line from mink Mustela vison; ATCC number: CCL-64) were seeded in DMEM (Invitrogen) supplemented with 10% fetal bovine serum (Pan Biotech) at a defined cell density in 24-well or 96-well plates (24-well plate: 1.5×10^5 cells per well; 96-well plate: 4×10^4 cells per well). Cell cultures were incubated in DMEM at 37° C. and 10% CO2. On the next day, the medium was replaced and cells were serum-starved for 16-20 hours. The following day, serial dilutions of compounds were added to the wells, pre-incubated for 1.5 hrs before recombinant TGF-beta 1 ligand (final concentration 5 ng/ml; R&D systems) was added. After one hour of ligand stimulation, lysates were prepared and analyzed using an enzyme-linked immunosorbent assay kit (PathScan Phospho-Smad2 Kit, Cell Signaling Technologies). The ELISA detects phosphorylated Smad2 as well as phosphorylated Smad3 with the phospho-specific antibody. TGF-beta stimulated cells and unstimulated cells served as positive and negative controls (100% and background control). The concentration of the vehicle DMSO was kept constant at 0.2% (v/v) in all wells. Dose-response relationships were fitted using curve fitting algorithms of the RS1 statistics software package (Brooks Automation Inc. RS/1—Statistical Tools Handbook. Release 6.2) to determine the concentration at which half-maximal inhibition (IC50) of Smad2/3 phosphorylation was achieved.
Background: ELISA stands for enzyme-linked immunosorbent assay.

Assay [2] concerns the target T1, GST-ALK5 (Homo sapiens, UniProt P36897).
T1 sequence (P36897 34-503): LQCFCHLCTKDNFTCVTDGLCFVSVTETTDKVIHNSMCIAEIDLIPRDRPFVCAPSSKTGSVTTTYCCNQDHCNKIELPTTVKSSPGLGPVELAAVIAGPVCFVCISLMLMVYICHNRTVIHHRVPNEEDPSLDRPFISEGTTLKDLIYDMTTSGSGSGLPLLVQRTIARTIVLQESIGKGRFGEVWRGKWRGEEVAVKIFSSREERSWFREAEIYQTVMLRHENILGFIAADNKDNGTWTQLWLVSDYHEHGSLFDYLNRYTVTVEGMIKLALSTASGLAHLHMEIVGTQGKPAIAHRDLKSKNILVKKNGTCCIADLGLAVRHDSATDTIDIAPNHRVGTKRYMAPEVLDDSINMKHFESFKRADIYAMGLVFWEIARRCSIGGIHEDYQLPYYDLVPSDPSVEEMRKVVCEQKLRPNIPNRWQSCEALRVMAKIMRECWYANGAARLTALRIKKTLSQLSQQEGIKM
As to the kind of experiment: In-vitro (enzyme) kinase assay, 384-well flashplate (Example 36). The following applies: GST-ALK5, GST-SMAD2 substrate, 3 mM ATP, 30° C., 45 min; read-out: TβR activity (Example 36). Format: biochemical. As for the experimental part:
In-vitro (Enzyme) Assay for Determination of the Efficacy of Inhibitors of the Inhibition of TGF-beta-Mediated Effects
The kinase assay was carried out as 384-well flashplate assay. 31.2 nM of GST-ALK5, 439 nM of GST-SMAD2 and 3 mM of ATP (with 0.3 μCi of ^33P-ATP/well) were incubated in a total volume of 35 μl (20 mM of HEPES, 10 mM of MgCl2, 5 mM of MnCl2, 1 mM of DTT, 0.1 of BSA, pH 7.4) without or with test substance (5-10 concentrations) at 30° C. for 45 min. The reaction was stopped using 25 μl of 200 mM EDTA solution, filtered with suction at room temperature after 30 min, and the wells were washed with 3 times 100 μl of 0.9% NaCl solution. Radioactivity was measured in the TopCount. The IC50 values were calculated using RS1.

Consider `CN1CCc2cc(-c3cncc(-c4cc(-c5cc(Cl)ccc5F)nc5ncccc45)c3)ccc21` [compound 149, 2-(5-Chloro-2-fluoro-phenyl)-4-[5-(1-methyl-2,3-dihydro-1H-indol-5-yl)-pyridin-3-yl]-[1,8]naphthyridine], for which the IC50 was less than 0.1 µM in assay [1] and 0.1 to 1 µM in assay [2].

With `Cn1cc(-c2cc(-c3cc(-c4cc(Cl)ccc4F)nc4ncccc34)c[n+]([O-])c2)cn1` [compound 22, 2-(5-chloro-2-fluoro-phenyl)-4-[5-(1-methyl-1H-pyrazol-4-yl)-1-oxy-pyridin-3-yl]-[1,8]naphthyridine], the IC50 in assay [1] and in assay [2] was 1 to 10 µM each time.

Take `CN(C)CCc1ccc(-c2cncc(-c3cc(-c4cc(F)ccc4F)nc4ncccc34)c2)cc1` [compound 177, [2-(4-{5-[2-(2,5-Difluoro-phenyl)-[1,8]naphthyridin-4-yl]-pyridin-3-yl}-phenyl)-ethyl]-dimethyl-amine]: the IC50 in assay [1] and in assay [2] was less than 0.1 µM in each case.

Take `O=C1COc2ccc(-c3cncc(-c4cc(-c5cc(Cl)ccc5F)nc5ncccc45)c3)cc2N1` [compound 131, 6-{5-[2-(5-Chloro-2-fluoro-phenyl)-[1,8]naphthyridin-4-yl]-pyridin-3-yl}-4H-benzo[1,4]oxazin-3-one]: the IC50 in assay [1] is 0.1 to 1 µM; in assay [2] it was less than 0.1 µM.

As for `Fc1ccc(Cl)cc1-c1cc(-c2cncc(-c3ccncc3)c2)c2cccnc2n1` [compound 102, 4-[3,4′]Bipyridinyl-5-yl-2-(5-chloro-2-fluoro-phenyl)-[1,8]naphthyridine], the IC50 in assay [1] was 0.1 to 1 µM; in assay [2] it was less than 0.1 µM.

`Cn1cc(-c2cc(-c3cc(-c4cc(Cl)ccc4F)nc4ncccc34)cnc2N)cn1` [compound 31, 5-[2-(5-chloro-2-fluoro-phenyl)-[1,8]naphthyridin-4-yl]-3-(1-methyl-1H-pyrazol-4-yl)-pyridin-2-ylamine]: the IC50 was greater than 10 µM in assay [1] and 1 to 10 µM in assay [2].

With `Fc1ccc(Cl)cc1-c1cc(-c2cncc(-c3ccnc(N4CCNCC4)c3)c2)c2cccnc2n1` [compound 105, 2-(5-Chloro-2-fluoro-phenyl)-4-(2′-piperazin-1-yl-[3,4′]bipyridinyl-5-yl)-[1,8]naphthyridine], the IC50 in assay [1] and in assay [2] was less than 0.1 µM throughout.

Regarding `O=S(=O)(c1cccc(-c2cncc(-c3cc(-c4cc(Cl)ccc4F)nc4ncccc34)c2)c1)N1CCNCC1` [compound 145, 2-(5-Chloro-2-fluoro-phenyl)-4-{5-[3-(piperazine-1-sulfonyl)-phenyl]-pyridin-3-yl}-[1,8]naphthyridine], the IC50 in assay [1] is 1 to 10 µM; in assay [2], 0.1 to 1 µM.

Turning to `Fc1ccc(Cl)cc1-c1cc(-c2cncc(-c3ccnc(N4CCOCC4)c3F)c2)c2cccnc2n1` [compound 108, 2-(5-Chloro-2-fluoro-phenyl)-4-(3′-fluoro-2′-morpholin-4-yl-[3,4′]bipyridinyl-5-yl)-[1,8]naphthyridine], the IC50 in assay [1] and in assay [2] was 0.1 to 1 µM each time.

`CN1CCC(n2cc(-c3cncc(-c4cc(-c5cc(C(F)(F)F)ccc5F)nc5ncccc45)c3)cn2)CC1` [compound 23, 2-(2-fluoro-5-trifluoromethyl-phenyl)-4-{5-[1-(1-methyl-piperidin-4-yl)-1H-pyrazol-4-yl]-pyridin-3-yl}-[1,8]naphthyridine]: the IC50 in assay [1] and in assay [2] was less than 0.1 µM in each case.

Consider `CN1CCN(c2ccc(-c3cncc(-c4cc(-c5cc(Cl)ccc5F)nc5ncccc45)c3)nn2)CC1` [compound 113, 2-(5-Chloro-2-fluoro-phenyl)-4-{5-[6-(4-methyl-piperazin-1-yl)-pyridazin-3-yl]-pyridin-3-yl}-[1,8]naphthyridine], for which the IC50 in assay [1] and in assay [2] was less than 0.1 µM each time.

With `CC1(C)CC(=O)Nc2ccc(-c3cncc(-c4cc(-c5cc(Cl)ccc5F)nc5ncccc45)c3)cc21` [compound 157, 6-{5-[2-(5-Chloro-2-fluoro-phenyl)-[1,8]naphthyridin-4-yl]-pyridin-3-yl}-4,4-dimethyl-3,4-dihydro-1H-quinolin-2-one], the IC50 in assay [1] and in assay [2] was 0.1 to 1 µM in each case.

As for `CC(C)N1CCc2ccc(-c3cncc(-c4cc(-c5cc(Cl)ccc5F)nc5ncccc45)c3)cc2C1` [compound 176, 2-(5-Chloro-2-fluoro-phenyl)-4-[5-(2-isopropyl-1,2,3,4-tetrahydro-isoquinolin-7-yl)-pyridin-3-yl]-[1,8]naphthyridine], the IC50 in assay [1] and in assay [2] was less than 0.1 µM in each case.

For the compound `Fc1ccc(Cl)cc1-c1cc(-c2cncc(-c3cccc(-n4ccnc4)n3)c2)c2cccnc2n1` [compound 110, 2-(5-Chloro-2-fluoro-phenyl)-4-(6-imidazol-1-yl-[2,3′]bipyridinyl-5′-yl)-[1,8]naphthyridine], the IC50 in assay [1] and in assay [2] was greater than 10 µM in each case.

Take `Fc1ccc(Cl)cc1-c1cc(-c2cncc(-c3ccc(CCN4CCCC4)cc3)c2)c2cccnc2n1` [compound 172, 2-(5-Chloro-2-fluoro-phenyl)-4-{5-[4-(2-pyrrolidin-1-yl-ethyl)-phenyl]-pyridin-3-yl}-[1,8]naphthyridine]: the IC50 in assay [1] and in assay [2] was less than 0.1 µM in each case.

Consider `Fc1ccc(Cl)cc1-c1cc(-c2cnc3ccccc3c2)c2cccnc2n1` [compound 100, 2-(5-Chloro-2-fluoro-phenyl)-4-quinolin-3-yl-[1,8]naphthyridine], for which the IC50 in assay [1] was greater than 10 µM; in assay [2] it was 1 to 10 µM.

In the case of `Fc1ccc(Cl)cc1-c1cc(-c2cncc(-c3cn(CCN4CCOCC4)nn3)c2)c2cccnc2n1` [compound 42, 2-(5-chloro-2-fluoro-phenyl)-4-{5-[1-(2-morpholin-4-yl-ethyl)-1H-[1,2,3]triazol-4-yl]-pyridin-3-yl}-[1,8]naphthyridine], in assay [1], the IC50 was 0.1 to 1 µM.

For `Cn1ccc(-c2cncc(-c3cc(-c4ccccc4F)nc4ncccc34)c2)n1` [compound 66, 2-(2-Fluoro-phenyl)-4-[5-(1-methyl-1H-pyrazol-3-yl)-pyridin-3-yl]-[1,8]naphthyridine], the IC50 in assay [1] is 1 to 10 µM.

For `CN1CCN(c2ccnc(-c3cncc(-c4cc(-c5ccccc5F)nc5ncccc45)c3)n2)CC1` [compound 70, 2-(2-fluoro-phenyl)-4-{5-[4-(4-methyl-piperazin-1-yl)-pyrimidin-2-yl]-pyridin-3-yl}-[1,8]naphthyridine], in assay [2], the IC50 fell in the range of 0.1 to 1 µM.

As for `CN1CCC(c2nc(-c3cncc(-c4cc(-c5ccccc5F)nc5ncccc45)c3)no2)CC1` [compound 60, 2-(2-fluoro-phenyl)-4-{5-[5-(1-methyl-piperidin-4-yl)-[1,2,4]oxadiazol-3-yl]-pyridin-3-yl}-[1,8]naphthyridine], in assay [2], the IC50 lay in the range of 0.1 to 1 µM.

As for `Fc1ccccc1-c1cc(-c2cncc(-c3cnn(CCN4CCOCC4)c3)c2)c2cccnc2n1` [compound 41, 2-(2-Fluoro-phenyl)-4-{5-[1-(2-morpholin-4-yl-ethyl)-1H-pyrazol-4-yl]-pyridin-3-yl}-[1,8]naphthyridine], the IC50 in assay [1] is 0.1 to 1 µM.

On to `OCCn1cc(-c2cncc(-c3cc(-c4ccccc4F)nc4ncccc34)c2)cn1` [compound 40, 2-(4-{5-[2-(2-fluoro-phenyl)-[1,8]naphthyridin-4-yl]-pyridin-3-yl}-pyrazol-1-yl)-ethanol], for which the IC50 in assay [1] lay within 0.1 to 1 µM.

Consider `Cn1nccc1-c1cncc(-c2cc(-c3ccccc3F)nc3ncccc23)c1` [compound 67, 2-(2-Fluoro-phenyl)-4-[5-(2-methyl-2H-pyrazol-3-yl)-pyridin-3-yl]-[1,8]naphthyridine], for which, in assay [1], the IC50 lay within 1 to 10 µM.
